Laboratory results published in PubChem BioAssay (NCI).
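In this assay, cells in 96-well plates receive the compound at five concentrations for 48 hours. Endpoints are linearly interpolated between the surrounding concentrations. GI50 is the concentration that inhibits growth by half. TGI denotes the concentration required for complete inhibition of growth.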

What was measured:
Assay in all cases: inhibition of tumour cell growth, NCI panel, 48 h
MOLT-4 leukemia = tested on: MOLT-4 leukemia
HCT-116 colon = tested on: HCT-116 colon
COLO 205 colon = tested on: COLO 205 colon
A549 NSCLC = tested on: A549 NSCLC
SF-268 CNS = tested on: SF-268 CNS
SK-OV-3 ovarian = tested on: SK-OV-3 ovarian
K-562 leukemia = tested on: K-562 leukemia
UACC-257 melanoma = tested on: UACC-257 melanoma
MALME-3M melanoma = tested on: MALME-3M melanoma
MDA-MB-435 = tested on: MDA-MB-435

Structure (SMILES)	TGI (MOLT-4 leukemia) [µM]	TGI (HCT-116 colon) [µM]	TGI (COLO 205 colon) [µM]	TGI (A549 NSCLC) [µM]	TGI (SF-268 CNS) [µM]	TGI (SK-OV-3 ovarian) [µM]	TGI (K-562 leukemia) [µM]	TGI (UACC-257 melanoma) [µM]	TGI (MALME-3M melanoma) [µM]	GI50 (MOLT-4 leukemia) [µM]	GI50 (HCT-116 colon) [µM]	GI50 (COLO 205 colon) [µM]	GI50 (A549 NSCLC) [µM]	GI50 (SF-268 CNS) [µM]	GI50 (SK-OV-3 ovarian) [µM]	GI50 (K-562 leukemia) [µM]	GI50 (UACC-257 melanoma) [µM]	GI50 (MDA-MB-435) [µM]	TGI (MDA-MB-435) [µM]	GI50 (MALME-3M melanoma) [µM]
COc1c(Sc2ccccc2)cc(Sc2ccccc2)c2cccnc12	48.1	> 100	39	> 100	> 100	> 100	> 100	41.1	44.1	–	–	–	–	–	–	–	–	–	–	–
CN1C(=O)C2C=CC1C1CCC2N(C)C1=O (configuration not stated)	> 100	> 100	> 100	> 100	> 100	> 100	> 100	> 100	> 100	–	–	–	–	–	–	–	–	–	–	–
COC(=O)c1ccc(CN2C(=O)C(Cl)=C(Nc3ccc(OC)c(Cl)c3)C2=O)cc1	49	> 50	> 50	> 50	> 50	> 50	> 50	> 50	–	5.83	13.3	17	26.2	15.4	33.9	4.17	19.4	47.3	> 50	–
CCCCN(CC)c1ncnc2ccc(Br)cc12	> 100	36.2	63.7	45.6	68	49.4	51.1	–	38.5	2.45	15.8	20.4	13.9	19.1	18.8	10.4	–	16	34.4	19.1
COc1cc2c3c(ncc2c(OC)c1OC)-c1cc2c(cc1C3)OCO2	–	36.5	> 100	> 100	–	61.4	20.5	–	–	–	22.1	> 100	82.9	–	21.6	4.27	–	> 100	> 100	–
COC(=O)[C@@]1(C)CCC[C@]2(C(=O)O)C3Cc4occc4[C@H](C)[C@@H]3CCC21 (some centres not stated)	> 100	> 100	–	> 100	> 100	> 100	> 100	–	> 100	–	–	–	–	–	–	–	–	–	> 100	–
CC1=NOC(=O)C1N=Nc1ccc(Br)c(C)c1 (configuration not stated)	45.3	33.9	52.9	46	47.6	97.8	30.5	35.4	33.3	–	–	–	–	–	–	–	–	–	–	–
COc1ccc2ccccc2c1CN1CCOCCOCCN(Cc2c(OC)ccc3ccccc23)CCOCCOCC1	> 90.1	> 59	> 100	> 100	> 100	> 100	> 100	65.5	> 63.9	–	–	–	–	–	–	–	–	–	–	–
COC(=O)[C@H]1N[C@@H](C(=O)OC)C23CCC[C@H]2CC[C@]1(C(OC)OC)C3	> 100	> 100	> 100	> 100	> 100	> 100	> 100	> 100	> 100	–	–	–	–	–	–	–	–	–	–	–
Clc1ccc2c(c1)[nH]c1c2nc2sccn21	> 100	> 100	> 100	> 100	> 100	> 100	> 100	> 100	> 100	–	–	–	–	–	–	–	–	–	–	–
Cc1ccc(/C=C2/NC(=S)SC2=O)cc1	> 100	> 100	> 100	> 100	–	> 100	–	> 100	–	–	–	–	–	–	–	–	–	–	> 100	–
COC(=O)C(=O)C(C(=O)C(N)=O)c1nc2ccc(C(=O)c3ccccc3)cc2[nH]c1=O (configuration not stated)	> 100	> 100	–	> 100	> 100	> 100	> 100	> 100	> 100	–	–	–	–	–	–	–	–	–	> 100	–
O=C(O)Cc1ccccc1CCc1ccccc1Cl	> 100	> 100	> 100	> 100	> 100	> 100	> 100	> 100	> 100	–	–	–	–	–	–	–	–	–	–	–
CCN(CC)CCOc1c(OC)c(Br)cc2c(C)c(C(=O)OC)oc12	1.23	3.15	3.68	20.2	5.08	4.1	2.09	4.29	–	0.374	1.17	0.925	10	1.33	1.29	0.332	1.53	1.03	2.62	–
Cc1ccc2sc3ccc(N)cc3c(=O)c2c1	> 100	> 100	> 100	> 100	> 100	> 100	> 100	> 100	–	–	–	–	–	–	–	–	–	–	> 100	–
CCOC(=O)c1c2c(n(Cc3ccccc3)c1C)-c1nc(Cc3ccccc3)[nH]c1C(=O)C2=O	5.41	2.9	3.33	7.15	4.59	5.19	4.05	8.71	3.26	2.13	1.49	1.83	2.5	1.91	2.31	1.85	2.82	–	–	1.61
O=C(CSc1nc(-c2ccccc2)c(-c2ccccc2)[nH]1)NNC(=S)Nc1ccccc1	> 100	> 100	> 100	> 100	> 100	> 100	–	> 100	> 100	–	–	–	–	–	–	–	–	–	–	–
Clc1ccc(-c2c(C3=NCCN3)nnn2-c2ccccc2)cc1	> 100	> 100	> 100	> 100	> 100	> 100	> 100	> 100	> 100	–	–	–	–	–	–	–	–	–	–	–
CCOC(=O)C1=C(Nc2ccc(Cl)c(Cl)c2)OC/C1=N\NC(=O)Cc1ccccc1	> 100	> 100	> 100	> 100	> 100	> 100	> 100	> 100	> 100	–	–	–	–	–	–	–	–	–	–	–
COC(=O)C(CC(=O)c1c[nH]c2ccccc12)c1c[nH]c2ccccc12 (configuration not stated)	46.7	31.6	–	60.1	–	69.9	66.7	30.4	52.3	–	–	–	–	–	–	–	–	–	–	–
Clc1ccc2c(c1)C(N1CCNCC1)=Nc1ccccc1O2	4.19	2.8	2.67	16.9	11.8	4.5	–	2.87	3.5	1.82	1.42	1.36	4.5	2.65	1.94	–	1.5	1.65	3.11	1.75

Structure (SMILES)	TGI (MOLT-4 leukemia) [µM]	TGI (HCT-116 colon) [µM]	TGI (COLO 205 colon) [µM]	TGI (A549 NSCLC) [µM]	TGI (SF-268 CNS) [µM]	TGI (SK-OV-3 ovarian) [µM]	TGI (K-562 leukemia) [µM]	TGI (UACC-257 melanoma) [µM]	TGI (MALME-3M melanoma) [µM]	GI50 (MOLT-4 leukemia) [µM]	GI50 (HCT-116 colon) [µM]	GI50 (COLO 205 colon) [µM]	GI50 (A549 NSCLC) [µM]	GI50 (SF-268 CNS) [µM]	GI50 (SK-OV-3 ovarian) [µM]	GI50 (K-562 leukemia) [µM]	GI50 (UACC-257 melanoma) [µM]	GI50 (MDA-MB-435) [µM]	TGI (MDA-MB-435) [µM]	GI50 (MALME-3M melanoma) [µM]
CC1(C)C=[N+]([O-])C(C)(C)N1O	> 10	> 10	> 10	> 10	> 10	–	> 10	> 10	> 10	–	–	–	–	–	–	–	–	–	> 10	–
CN1c2ccccc2S(=O)(=O)n2c(CCc3ccccc3)nnc21	> 100	> 100	> 100	> 100	> 100	> 100	> 100	> 100	–	–	–	–	–	–	–	–	–	–	> 100	–
CC1(C)C(=O)C=CC2(C)C1CC(O)C1(C)C2CCC2(C)C(c3ccoc3)OC(=O)C3OC321 (configuration not stated)	27.2	31.7	50.3	69.8	–	> 100	> 100	–	–	–	–	–	–	–	–	–	–	–	72.7	–
CCCCCCCCCCCCCC(=O)NCC(OCC)OCC	–	> 100	> 100	> 100	> 100	> 100	–	> 100	> 100	–	–	–	–	–	–	–	–	–	–	–
Cc1cccc(N=C2NC(=O)C(CC(=O)Nc3ccc(C)cc3C)S2)c1 (configuration not stated)	> 100	> 100	–	> 100	> 100	–	> 100	> 100	> 100	–	–	–	–	–	–	–	–	–	–	–
COC(=O)C1Cc2c([nH]c3ccccc23)C(c2ccccc2O)N1Cc1ccccc1 (configuration not stated)	> 46.4	> 31.6	> 46.4	> 46.4	> 31.6	40.1	> 46.4	> 46.4	> 31.6	–	–	–	–	–	–	–	–	–	–	–
CC1=C(/C=C/C(C)=C/C=C/C(C)=C/C=C/C=C(C)/C=C/C=C(C)/C=C/C2=C(C)C(=O)C(O)CC2(C)C)C(C)(C)CC(O)C1=O (configuration not stated)	> 100	> 100	> 100	> 100	> 100	> 100	> 100	> 100	> 100	–	–	–	–	–	–	–	–	–	–	–
COc1cc(C2c3cc4c(cc3[C@@H](OCCN(C)C)C3COC(=O)[C@H]23)OCO4)cc(OC)c1O (some centres not stated)	0.0878	7.33	16	–	3.83	1.6	> 100	8.25	1.87	0.0105	–	–	–	–	–	–	–	–	–	–
CNCCNc1nc2ccccc2c2c(=O)c3cc(OC)ccc3sc12	3.53	2.62	3.34	3.41	3.39	3.97	–	3.75	3.31	1.77	1.34	1.64	1.71	1.64	1.82	–	1.89	1.72	3.13	1.82
Cc1c(C(=O)CC(=O)C(=O)Nc2cc(Cl)ccc2Cl)[n+](=O)c2ccccc2n1[O-]	66.5	> 100	69.6	> 100	> 100	> 100	> 100	> 100	> 100	–	–	–	–	–	–	–	–	–	–	–
O=c1cc(-c2ccccn2)[nH]c2cc(F)ccc12	> 100	> 100	> 100	> 100	> 100	> 100	> 100	> 100	> 100	–	–	–	–	29.5	–	–	–	–	–	–
CC[C@H](Nc1nc(N)nc(C2CC2)c1C#N)c1nc2cccc(NCc3ccc(C(=O)NO)cc3)c2c(=O)n1-c1ccccc1	10.9	2.71	5.75	4.52	4.12	4.38	> 100	6.16	4.61	2.2	1.25	2.24	1.93	1.74	1.9	2.81	2.05	–	–	1.78
N#Cc1c(C[n+]2ccccc2)c2ccccc2oc1=O	> 100	> 100	> 100	> 100	> 100	> 100	> 100	> 100	> 100	–	–	–	–	–	–	–	–	–	–	–
S=P(N1CCCC1)(N1CC1)N1CC1	> 100	> 100	> 100	> 100	> 100	> 100	> 100	> 100	> 100	–	–	–	–	–	–	–	–	–	–	–
COc1nc(C)cc2c(=O)n(-c3ccccc3)n(CC(O)CN3CCN(c4ccc(Cl)cc4)CC3)c(=O)c12 (configuration not stated)	> 50	> 50	> 50	> 50	> 50	> 50	> 50	–	> 50	> 50	> 50	> 50	> 50	24.8	22.3	> 50	–	> 50	> 50	> 50
O=C(O)c1cccc(/C=C/c2ccccc2)c1	> 100	> 100	> 100	> 100	> 100	> 100	–	> 100	> 100	–	–	–	–	–	–	–	–	–	> 100	–
COc1ccccc1NC(=O)C1=C(C)NC(C)=C(C(=O)Nc2ccccc2OC)C1c1ccc(N(C)C)cc1	64.5	74.7	92.1	> 100	> 100	84.5	54.3	> 100	> 100	–	–	–	–	–	–	–	–	–	–	–
COc1cc(C2c3cc4c(cc3[C@@H](N(C)C)[C@H]3COC(=O)C23)OCO4)cc(OC)c1O (some centres not stated)	> 100	> 100	> 100	> 100	> 100	> 100	> 100	> 100	> 100	–	–	–	–	–	–	–	–	–	–	–
COC(=O)c1ccc(C(=O)OC)c2nc3cc(C)ccc3nc12	> 100	–	> 100	> 100	> 100	> 100	> 100	> 100	> 100	–	–	–	–	–	–	–	–	–	–	–
COc1cc(/C=C/c2ccc(OC)c(OC)c2OC)cc(OC)c1OC	> 62	27.9	33.3	> 88.9	> 64.2	57.6	> 69.3	52.8	48.7	–	–	–	–	–	–	–	–	–	–	–
